Measurements taken from PubChem BioAssay AID2060338 (Molecular Pharmacology Branch, DTP, NCI, 2025).
“And” between values parts separate entries of the source, which are not always exact repeats. Identical values can stand only once.

Tested on: 556581-035-R-J1-PDC spheroids with HUVEC/MSC, viability
Test: Anticancer human tumor 556581-035-R-J1-PDC patient-derived ovarian carcinoma cell line growth inhibition [IpAb]
Settings: for viability, T/C: stronger effect = lower value
From the text: Combinatorial screen of targeted agents with ipatasertib and abemaciclib in multi-cell type tumor spheroids
A high-throughput screen of multi-cell type tumor spheroids was designed to identify active combinations of targeted small molecules and ipatasertib or abemaciclib. Complex spheroids include a stromal component modeled by human endothelial cells (HUVEC) and fibroblasts modeled by human mesenchymal stem cells (MSCs). The concentration ranges selected for each drug and investigational agent were based upon clinically achievable concentrations if the clinical Cmax of the agent was known.
Compounds. The drugs and investigational agents: ipatasertib (NSC767898), abemaciclib(NSC768073), selumetinib (NSC741078), trametinib (758246), adavosertib (NSC754352), everolimus (NSC733504), sapanisertib (NSC764658), vemurafenib (NSC761431), venetoclax (NSC766270), copanlisib (NSC809693), apelisib (NSC765974), palbociblib (NSC758247), vemurafenib (NSC761431), dabrafenib (NSC764134), ravoxertinib (NSC781343), BMS-387032 (NSC767048), sotorasib (NSC818433), talazoparib (NSC767125) and afursertib (NSC778305), were obtained from the National Cancer Institute (NCI) Developmental Therapeutics Program Chemical Repository. The FDA-approved anticancer drug set is available from the NCI Developmental Therapeutics Program. […] The stock solutions were prepared in dimethyl sulfoxide (DMSO, Sigma-Aldrich, St. Louis, MO, cat. D2650) at 800-fold the tested concentration and stored at -70 degrees C prior to their use. All drugs and investigational agents were tested over a range starting from a high concentration at or near the clinical Cmax and decreasing in half-log increments. If the clinical Cmax for an agent had not been determined, the highest concentration tested was 10 microM.
NCI60 Cell Culture. NCI60 cell lines were obtained from the NCI Developmental Therapeutics Program Tumor Repository. For each lot of cells, the Repository performed Applied Biosystems AmpFLSTR Identifiler testing with PCR amplification to confirm consistency with the published Identifier STR profile for each cell line. Cells were kept in continuous culture for no more than 20 passages. The optimal seeding densities for each of the cell lines at each time point assessed were determined prior to performing the concentration response studies. Briefly, the NCI60 human tumor lines were grown as monolayers in RPMI 1640 medium supplemented with 10% FBS and 2 mmol/L L-glutamine.
An additional 9 lines were from the NCI60 cell line panel including MDA-MB-231 breast carcinoma, MDA-MB-468 breast carcinoma, MCF7 breast carcinoma, Hs578T breast carcinoma, MALME-3M melanoma, SK-MEL-2 melanoma, SK-OV-3 ovarian carcinoma, DU-145 prostate carcinoma, PC-3 prostate carcinoma, all cell lines along with major genetic alterations are listed on Table 2. Pooled donor human umbilical vein endothelial cells (HUVEC, Lonza, cat. CC-2519) and human mesenchymal stem cells (hMSC, Lonza, cat. PT-2501) were purchased from Lonza (Walkersville, MD).
PDMR cell lines were grown in complete medium (DC medium): Dulbecco's modified Eagle's medium (DMEM)/F12 supplemented with 5% fetal bovine serum (FBS), 2 mM L-glutamine, 100 U/mL penicillin and 100 µg/ml streptomycin, 0.4 µg/ml hydrocortisone, 10 ng/ml epidermal growth factor (EGF) recombinant human protein, 24 µg/mL adenine, and 0.1 mg/mL primocin. During culture from frozen stock vials, PDMR cells were cultured in the same medium containing 10 µM Y-27632 (see Table 3). The PDCs were cultured in complete DMEM/F12 media without 10 microM Y-27632 dihydrochloride for at least two passages prior to the screen. The pooled donor HUVEC and hMSC were cultured in endothelial cell growth medium 2 (PromoCell, Heidelberg, Germany, cat. C-22011) and mesenchymal stem cell growth medium 2 (PromoCell, cat. C-28009), respectively. For all experiments, HUVEC and hMSC were used at passages </=5.
[…]

[1] = curve of first compound, second compound 0.1 µM
[2] = curve of first compound, second compound 0.316 µM
[3] = curve of first compound, second compound 1 µM
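Further: spheroids exposed to compounds for 7 days before readout.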

Cn1cnc2c(F)c(Nc3ccc(Br)cc3Cl)c(C(=O)NOCCO)cc21 + CCN1CCN(Cc2ccc(Nc3ncc(F)c(-c4cc(F)c5nc(C)n(C(C)C)c5c4)n3)nc2)CC1
IC50 (curve of first compound, second compound 0.01 µM): 876 nM | IC50 (curve of first compound, second compound 0.0316 µM): 1130 nM | IC50 [1]: 870 nM | IC50 [2]: 1170 nM | IC50 [3]: 1210 nM | viability, T/C (second compound 0.01 µM, first compound 0.00949 µM): 118% | viability, T/C (second compound 0.01 µM, first compound 0.03 µM): 111% | viability, T/C (second compound 0.01 µM, first compound 0.0949 µM): 108% | viability, T/C (second compound 0.01 µM, first compound 0.3 µM): 78.7% | viability, T/C (second compound 0.01 µM, first compound 0.949 µM): 49% | viability, T/C (second compound 0.01 µM, first compound 3 µM): 18.8% | viability, T/C (second compound 0.0316 µM, first compound 0.00949 µM): 102% | viability, T/C (second compound 0.0316 µM, first compound 0.03 µM): 121% | viability, T/C (second compound 0.0316 µM, first compound 0.0949 µM): 110% | viability, T/C (second compound 0.0316 µM, first compound 0.3 µM): 73.4% | viability, T/C (second compound 0.0316 µM, first compound 0.949 µM): 62.4% | viability, T/C (second compound 0.0316 µM, first compound 3 µM): 14.3% | viability, T/C (second compound 0.1 µM, first compound 0.00949 µM): 97.7% | viability, T/C (second compound 0.1 µM, first compound 0.03 µM): 95.1% | viability, T/C (second compound 0.1 µM, first compound 0.0949 µM): 98.6% | viability, T/C (second compound 0.1 µM, first compound 0.3 µM): 84% | viability, T/C (second compound 0.1 µM, first compound 0.949 µM): 47.4% | viability, T/C (second compound 0.1 µM, first compound 3 µM): 17.8% | viability, T/C (second compound 0.316 µM, first compound 0.00949 µM): 102% | viability, T/C (second compound 0.316 µM, first compound 0.03 µM): 102% | viability, T/C (second compound 0.316 µM, first compound 0.0949 µM): 104% | viability, T/C (second compound 0.316 µM, first compound 0.3 µM): 87.1% | viability, T/C (second compound 0.316 µM, first compound 0.949 µM): 56.8% | viability, T/C (second compound 0.316 µM, first compound 3 µM): 22.4% | viability, T/C (second compound 1 µM, first compound 0.00949 µM): 48% | viability, T/C (second compound 1 µM, first compound 0.03 µM): 62% | viability, T/C (second compound 1 µM, first compound 0.0949 µM): 59% | viability, T/C (second compound 1 µM, first compound 0.3 µM): 63.7% | viability, T/C (second compound 1 µM, first compound 0.949 µM): 58.6% | viability, T/C (second compound 1 µM, first compound 3 µM): 20.1%

Cn1nccc1Nc1nccc(-c2ccn(C(CO)c3ccc(Cl)c(F)c3)c(=O)c2)n1 (configuration not stated)
viability, T/C (compound 0.0316 µM): 114% and 133% | viability, T/C (compound 0.1 µM): 117% and 135% | viability, T/C (compound 0.316 µM): 103% and 124% | viability, T/C (compound 1 µM): 86.2% and 104% | viability, T/C (compound 3.16 µM): 61.3% and 88.7% | viability, T/C (compound 10 µM): 17.8% and 38.4% | IC50 (curve of compound): 4160 nM and 7690 nM

C=CC(=O)N1CCN(c2nc(=O)n(-c3c(C)ccnc3C(C)C)c3nc(-c4c(O)cccc4F)c(F)cc23)C(C)C1 (configuration not stated) + CC(C)NCC(C(=O)N1CCN(c2ncnc3c2C(C)CC3O)CC1)c1ccc(Cl)cc1
IC50 [1]: 5380 nM | IC50 [2]: 6530 nM | IC50 [3]: 4020 nM | IC50 (curve of first compound, second compound 3.16 µM): 1790 nM | IC50 (curve of first compound, second compound 10 µM): < 31.6 nM | viability, T/C (second compound 0.1 µM, first compound 0.0316 µM): 99.9% | viability, T/C (second compound 0.1 µM, first compound 0.1 µM): 108% | viability, T/C (second compound 0.1 µM, first compound 0.316 µM): 103% | viability, T/C (second compound 0.1 µM, first compound 1 µM): 111% | viability, T/C (second compound 0.1 µM, first compound 3.16 µM): 68.6% | viability, T/C (second compound 0.1 µM, first compound 10 µM): 28.3% | viability, T/C (second compound 0.316 µM, first compound 0.0316 µM): 79.8% | viability, T/C (second compound 0.316 µM, first compound 0.1 µM): 79.1% | viability, T/C (second compound 0.316 µM, first compound 0.316 µM): 74% | viability, T/C (second compound 0.316 µM, first compound 1 µM): 85.1% | viability, T/C (second compound 0.316 µM, first compound 3.16 µM): 73.4% | viability, T/C (second compound 0.316 µM, first compound 10 µM): 35.4% | viability, T/C (second compound 1 µM, first compound 0.0316 µM): 74.3% | viability, T/C (second compound 1 µM, first compound 0.1 µM): 65.6% | viability, T/C (second compound 1 µM, first compound 0.316 µM): 59.8% | viability, T/C (second compound 1 µM, first compound 1 µM): 64% | viability, T/C (second compound 1 µM, first compound 3.16 µM): 57% | viability, T/C (second compound 1 µM, first compound 10 µM): 28.4% | viability, T/C (second compound 3.16 µM, first compound 0.0316 µM): 54.5% | viability, T/C (second compound 3.16 µM, first compound 0.1 µM): 54.5% | viability, T/C (second compound 3.16 µM, first compound 0.316 µM): 52.6% | viability, T/C (second compound 3.16 µM, first compound 1 µM): 47.9% | viability, T/C (second compound 3.16 µM, first compound 3.16 µM): 48.9% | viability, T/C (second compound 3.16 µM, first compound 10 µM): 21.8% | viability, T/C (second compound 10 µM, first compound 0.0316 µM): 44.6% | viability, T/C (second compound 10 µM, first compound 0.1 µM): 48.2% | viability, T/C (second compound 10 µM, first compound 0.316 µM): 45.5% | viability, T/C (second compound 10 µM, first compound 1 µM): 48.5% | viability, T/C (second compound 10 µM, first compound 3.16 µM): 34.9% | viability, T/C (second compound 10 µM, first compound 10 µM): 13.5%
